Measurements as given in patent US20260159527A1, “MACROCYCLIC BCL6 DEGRADERS” (DANA-FARBER CANCER INSTITUTE, INC., priority 2022, published 2026).
Like-named read-outs stand apart in the source and are kept apart here.

Experiments:
[1] = from C[C@@H]1CN(c2ncc(Cl)c(Nc3cc(OCC(=O)O)c4c(c3)[nH]c(=O)n4C)n2)C[C@H](N)C1(F)F; amide bond; 14-membered ring; HATU/DIEA; DMF; 141.0 mM; 20.0 °C; 2.0 h
[2] = snar bond, 14-membered ring, DIEA, 80.0 °C, 12.0 h
BCL6 = molecular target: T1, BCL6 (Homo sapiens, UniProt P41182); assay: HiBiT cellular degradation assay (Promega) in Su-DHL-4 cells; assay type: cell-based; details: concentration to reach 50% degradation; endogenous BCL6 tagged with SmBiT in Su-DHL-4 cells; 24 hr of compound treatment; relative to DMSO control
T1 construct: Endogenous BCL6 was tagged with the 11-amino acid SmBiT through CRISPR/Cas9 gene editing; endogenous in cells; host or cells: Su-DHL-4 cells, CRISPR/Cas9 knock-in single cell clone
Method: DC50 (concentration to reach 50% degradation) values were determined from a cellular degradation assay (HiBiT, Promega™) in Su-DHL-4 cells (Table 1). Endogenous BCL6 was tagged with the 11-amino acid SmBiT through CRISPR/Cas9 gene editing and single cell clone selection. After 24 hr of compound treatment, cells were lysed and incubated with LgBiT protein to reconstitute intact nanoluciferase. Substrate was then added and relative luciferase units were measured. Degradation levels for each treatment were taken as a percentage compared to the control, 100% DMSO (Prism).

[3] = 14-membered ring

Row | SMILES | DC50 (BCL6) | further results
1 | C[C@@H]1CN2C[C@H](NC(=O)COc3cc(cc4[nH]c(=O)n(C)c34)Nc3nc2ncc3Cl)C1(F)F | – | ring closure, crude yield [1]: 59%
2 | C[C@@H]1C[C@H]2CN(C1)c1ncc(Cl)c(n1)Nc1cc(c3c(c1)[nH]c(=O)n3C)OCCN2 | – | ring closure, isolated yield ([3]; from C[C@@H]1C[C@H](N)CN(c2ncc(Cl)c(Nc3cc(OCCCl)c4c(c3)[nH]c(=O)n4C)n2)C1, amine bond, K2CO3/NaI, DMF, 11.5 mM, 100.0 °C, 36.0 h): 42%
3 | CNC(=O)COc1cc2cc3cc(c2n(C)c1=O)OCCO[C@@H]1C[C@H](C)CN(C1)c1ncc(Cl)c(n1)N3 [Compound 6, 2-(((1^3R, 1^5S)-2^5-chloro-1^5,4^1-dimethyl-4^2-oxo-4^1, 4^2-dihydro-5,8-dioxa-3-aza-4(6.8)-quinolina-2(2,4)-pyrimidina-1 (1,3)-piperidinacyclooctaphane-4^3-yl)oxy)-N-methylacetamide] | 0.61 nM | ring closure, yield after HPLC ([2]; from CNC(=O)COc1cc2cc(Nc3nc(Cl)ncc3Cl)cc(OCCO[C@H]3CNC[C@@H](C)C3)c2n(C)c1=O, DMSO, 36.0 mM): 12%
4 | C[C@H]1C[C@@H]2CN(C1)c1ncc(Cl)c(n1)Nc1cc(c3c(c1)[nH]c(=O)n3C)OCCO2 | – | ring closure, isolated yield ([3]; from C[C@@H]1CNC[C@H](OCCOc2cc(Nc3nc(Cl)ncc3Cl)cc3[nH]c(=O)n(C)c23)C1, snar bond, DIEA, DMSO, 18.4 mM, 80.0 °C, 12.0 h): 13%
5 | C[C@H]1CN2C[C@@H](OCCOc3cc(cc4[nH]c(=O)n(C)c34)Nc3nc2ncc3Cl)C1(F)F | – | ring closure, isolated yield ([3]; from C[C@H]1CNC[C@@H](OCCOc2cc(Nc3nc(Cl)ncc3Cl)cc3[nH]c(=O)n(C)c23)C1(F)F, snar bond, DIEA, DMSO, 49.7 mM, 80.0 °C, 24.0 h): 30%
6 | C[C@@H]1C[C@H]2CN(C1)c1ncc(Cl)c(n1)Nc1cc(c3c(c1)[nH]c(=O)n3C)OCCO2 | – | ring closure, isolated yield ([3]; from C[C@H]1CNC[C@@H](OCCOc2cc(Nc3nc(Cl)ncc3Cl)cc3[nH]c(=O)n(C)c23)C1, snar bond, DIEA, DMSO, 38.3 mM, 80.0 °C, 12.0 h): 12%
7 | C[C@@H]1CN2C[C@H](NCCOc3cc(cc4[nH]c(=O)n(C)c34)Nc3nc2ncc3F)C1(F)F [Compound 38] | 14.2 nM | –
8 | CNC(=O)COc1cc2cc3ccc2n(c1=O)CCCCO[C@@H]1C[C@H](C)CN(C1)c1ncc(Cl)c(n1)N3 [Compound B, reference compound] | > 400 nM | –
9 | CC1CN2CC(NC(=O)COc3cc(cc4[nH]c(=O)n(C)c34)Nc3nc2ncc3F)C1(F)F (centres unmarked) | – | ring closure, isolated yield ([3]; from CC1CN(c2ncc(F)c(Nc3cc(OCC(=O)O)c4c(c3)[nH]c(=O)n4C)n2)CC(N)C1(F)F, amide bond, HATU/DIEA, DMF, 148.0 mM, 15.0 °C, 2.0 h): 74%
10 | CNC(=O)COc1cc2cc3cc(c2n(C)c1=O)OCCNC1CN(CC(C)C1(F)F)c1ncc(Cl)c(n1)N3 (centres unmarked) [Compound 3] | 0.36 nM | –

More lines, main results first:

Row | DC50 (BCL6) | SMILES | further results
11 | 0.68 nM | CNC(=O)COc1cc2cc3cc(c2n(C)c1=O)OCCC[C@H]1CN(C[C@@H](C)C1(F)F)c1ncc(Cl)c(n1)N3 [Compound 4, 2-(((1^3S, 1^5R)-2^5-chloro-1^4,1^4-difluoro-13,41-dimethyl-4^2-oxo-4^1,4^2-dihydro-5-oxa-3-aza-4(6,8)-quinolina-2(2,4)-pyrimidina-1 (1,3)-piperidinacyclooctaphane-4^3-yl)oxy)-N-methylacetamide] | ring closure, yield after HPLC ([2]; from CNC(=O)COc1cc2cc(Nc3nc(Cl)ncc3Cl)cc(OCCC[C@H]3CNC[C@@H](C)C3(F)F)c2n(C)c1=O, DMF, 140.0 mM): 12%
12 | > 400 nM | C[C@H]1CN2C[C@@H](CCCOc3cc(cc4[nH]c(=O)n(C)c34)Nc3nc2ncc3Cl)C1(F)F [Compound 27, (1^3R, 1^5S)-2^5-chloro-1^4,1^4-difluoro-1^5,4^3-dimethyl-4^2,4^3-dihydro-4^1H-5-oxa-3-aza-4(6,4)-benzo[d]imidazola-2(2,4)-pyrimidina-1 (1,3)-piperidinacyclooctaphan-4^2-one] | ring closure, isolated yield ([3]; from C[C@H]1CNC[C@@H](CCCOc2cc(Nc3nc(Cl)ncc3Cl)cc3[nH]c(=O)n(C)c23)C1(F)F, snar bond, DIEA, DMSO, 40.6 mM, 80.0 °C, 12.0 h): 63%
13 | 18.9 nM | C[C@@H]1CN2C[C@H](NCCOc3cc(cc4c3n(C)c(=O)n4CC[S@@](C)(=N)=O)Nc3nc2ncc3Cl)C1(F)F [Compound 44] | –
14 | 72 nM | C[C@@H]1CN2C[C@H](CCCOc3cc(cc4[nH]c(=O)n(C)c34)Nc3nc2ncc3Cl)C1(F)F [Compound 26, (1^3S,1^3R)-2^5-chloro-1^4,1^4-difluoro-1^5,4^3-dimethyl-4^2,4^3-dihydro-4 H-5-oxa-3-aza-4(6,4)-benzo[d]imidazola-2(2,4)-pyrimidina-1 (1,3)-piperidinacyclooctaphan-4^2-one] | ring closure, isolated yield ([3]; from C[C@@H]1CNC[C@H](CCCOc2cc(Nc3nc(Cl)ncc3Cl)cc3[nH]c(=O)n(C)c23)C1(F)F, snar bond, DIEA, DMSO, 27.1 mM, 80.0 °C, 12.0 h): 64%
15 | 8.7 nM | C[C@@H]1CN2C[C@H](NCCOc3cc(cc4c3n(C)c(=O)n4CCC3(O)COC3)Nc3nc2ncc3Cl)C1(F)F [Compound 45] | –
16 | 1.9 nM | C[C@@H]1CN2C[C@H](OCCOc3cc(cc4c3n(C)c(=O)n4CCC(C)(C)O)Nc3nc2ncc3Cl)C1(F)F [Compound 33, (1^3S,1^5R)-2^5-Chloro-1^4, 1^4-difluoro-4^1-(3-hydroxy-3-methylbutyl)-1^5,4^3-dimethyl-4^2,4^3-dihydro-4^1H-5,8-dioxa-3-aza-4(6,4)-benzo[d]imidazola-2(2,4)-pyrimidina-1 (1,3)-piperidinacyclooctaphan-4^2-one] | –
17 | > 400 nM | C[C@H]1CN2C[C@@H](CCCOc3cc(cc4c3n(C)c(=O)n4C)Nc3nc2ncc3Cl)C1(F)F [Compound 30, (1^3R155)-2^5-chloro-1^4,1^4-difluoro-1^5,4^14^3-trimethyl-4^2,4^3-dihydro-4^1H-5-oxa-3-aza-4(6,4)-benzo[d]imidazola-2(2,4)-pyrimidina-1 (1,3)-piperidinacyclooctaphan-4^2-one] | –
18 | 4.4 nM | C[C@@H]1CN2C[C@H](CCCOc3cc(cc4c3n(C)c(=O)c(=O)n4C[C@H]3C[C@@H](O)C3)Nc3nc2ncc3Cl)C1(F)F [Compound 18-2] | –
19 | > 400 nM | C[C@H]1CN2C[C@@H](CCCOc3cc(cc4c3n(C)c(=O)c(=O)n4C[C@H]3C[C@@H](O)C3)Nc3nc2ncc3Cl)C1(F)F [Compound 19-2, (1^3R, 1^5S)-2^5-chloro-1^4,1^4-difluoro-4^1-(((1s,3S)-3-hydroxycyclobutyl)methyl)-1^2,4^4-dimethyl-4^2,4^2,4^3,4^4-tetrahydro-5-oxa-3-aza-4(7,5)-quinoxalina-2(2,4)-pyrimidina-1 (1,3)-piperidinacyclooctaphane-4^2,4^3-dione] | –
